Measured values from patent publication US11931482B2 (priority 2019, dated 2024).

Key:
[1] = oral antirheumatic therapy; Egsmose et al. 1995; cited from earlier work
[2] = tested on: Staphylococcus aureus strain MRSA USA300; assay: Microdilution assay, minimum inhibitory concentration of non-coating incorporated auranofin; type: cell-based; details: TSBG, ~18 hours
Method: Auranofin release from PU+auranofin-coated catheters was monitored by incubating each coated catheter in 1.98 mL of tryptic soy broth supplemented with 0.25% glucose (TSBG) at 37° C. with shaking at 110 rpm. […] Heilmann et al., Infect. Immun., 64, 277-82 (1996); Lim et al., J. Bacteriol., 186, 722-729 (2004). Every twenty-four hours, the release solutions were collected and completely replaced with fresh medium. A microdilution assay, as described by Shukla & Shukla, J. Mater. Chem. B, 6, 6444-6458 (2018), was used to determine the amount of auranofin contained in the media release samples by comparing the antibacterial activity to that of known concentrations of non-coating incorporated auranofin. […] Staphylococcus aureus strain MRSA USA300 (10 μL) at a final concentration of 10^5 CFU/mL in the exponential growth phase (as determined by optical density) was added to these wells. […] Subsequently, the optical density (OD) of the samples was read at 600-nm using a Cytation3 microplate reader (BioTek, Winooski, VT, USA). The normalized bacteria density was calculated using Equation (1).
The minimum inhibitory concentration of the auranofin control against USA300 was determined as the concentration range of auranofin needed to observe a statistically significant transition of normalized bacteria density from […]. […]

[3] = tested on: preformed Staphylococcus aureus biofilms; details: within two hours of exposure; Torres et al. 2016; cited from earlier work
[4] = tested on: Gram-positive pathogenic bacteria, including Mycobacterium tuberculosis, Bacillus subtilis, Enterococcus faecalis, Enterococcus faecium, Staphylococcus aureus; details: Hassanein et al. 2017; cited from earlier work
MRSA USA300 = assay: Kirby-Bauer assay, inner and outer surfaces of bisected coated catheters; type: cell-based; details: Staphylococcus aureus, read-out: average zone of inhibition diameter
Description: To evaluate the auranofin release, the inventors used a Kirby Bauer assay to visualize the bacterial inhibition and determine if the catheter released the auranofin into the surrounding media. Coated catheters were split through the circumference of the material to expose both the inner and outer surfaces. […] The inventors then placed these catheter pieces were then placed on a bacteria-seeded agar plate with the respective surfaces face down.
Antibacterial and antibiofilm activity of PU+auranofin catheter coatings was examined against MRSA USA300, a community-associated MRSA strain. Kirby-Bauer and broth bacteria survival assays on the coated catheters and their release solutions were conducted, respectively. For the Kirby-Bauer assay, MRSA USA300 in the exponential growth phase at a concentration of 10^8 CFU/mL was spread on tryptic soy agar plates. PU+auranofin-coated and PU+auranofin-uncoated catheters were cut in half lengthwise using a scalpel. Both the inner and outer surfaces of the catheters were placed in direct contact with the bacteria seeded agar and incubated for twenty-four hours at 37° C. These plates were then photographed using a Canon PowerShot S110 digital camera (Tokyo, Japan).

Row | Structure (SMILES) | cumulative toxicity during long-term treatments [1] | minimum inhibitory concentration against USA300 [2] [µg/mL] | effect on preformed Staphylococcus aureus biofilms [3] | minimum inhibitory concentration (MIC) against these bacteria [4] [µg/mL] | zone of inhibition at 30 µg/disc (MRSA USA300) [mm]
1 | CC(=O)OCC1OC([S-])C(OC(C)=O)C(OC(C)=O)C1OC(C)=O.CCP(CC)CC.[Au+] (centres unmarked) [auranofin, Gold(+1) cation; 3,4,5-triacetyloxy-6-(acetyloxymethyl) oxane-2-thiolate; triethylphosphanium] | no cumulative toxicity | 0.063 | inhibit preformed Staphylococcus aureus biofilms | ≥ 0.25 | –
2 | CN[C@H](CC(C)C)C(=O)N[C@H]1C(=O)N[C@@H](CC(N)=O)C(=O)N[C@H]2C(=O)N[C@H]3C(=O)N[C@H](C(=O)N[C@H](C(=O)O)c4cc(O)cc(O)c4-c4cc3ccc4O)[C@H](O)c3ccc(c(Cl)c3)Oc3cc2cc(c3O[C@@H]2O[C@H](CO)[C@@H](O)[C@H](O)[C@H]2O[C@H]2C[C@](C)(N)[C@H](O)[C@H](C)O2)Oc2ccc(cc2Cl)[C@H]1O [vancomycin] | – | – | – | – | 14.8 ± 2
